# Experimental data as given in paper PMC1525162 (BMC Pharmacology, 2006).
# Entries after “also recorded” stand apart in the source; their conditions may differ. Bridge positions count the residues as written; N and C are the ends. Ends that are not written are not given here. Peptide text beside a SMILES is read from it.
# What was measured:
# CGRP receptor = conditions: displaced by CGRP and CGRP(8–37); cited from earlier work
# Source text: (§1) Consequently, it is reasonable to assume that interactions of CGRP-F37 with the mature CLR-RAMP1 heterodimer would necessitate a more complex relationship in order to account for the high affinity binding associated with ...
# [1] = test system: endogenous CGRP receptor expressed on SK-N-MC human neuroblastoma cells; conditions: cited from earlier work
# Source text: as §1
# [2] = target: T1, wild type CLR-RAMP1 heterodimer (HEK293T-RAMP1 membranes) (Homo sapiens, UniProt O60894+Q16602); assay: Competition radioligand binding, wild type CLR; conditions: compared to Ki of CGRP
# Description: (§2) A crude cell membrane preparation was prepared as previously described. Briefly, HEK293T-RAMP1 membranes were prepared by scraping and transferring cells to a 50 mL conical tube using cold HBSS followed with two washings by centrifugation at 1000 × g using cold HBSS. The intact cell pellet was resuspended in 10 mL of 0.25 M sucrose containing a protease inhibitor cocktail consisting of 10μg/mL benzamidine, 10μg/mL leupeptin, and 20μg/mL phenylmethysulfonylfluoride. The cells were disrupted by freezing followed by Dounce homogenization of the thawed suspension using 20 strokes from a loose fitting (B) pestle. This mixture was then centrifuged at 1260 × g for 5 min at 4°C. Buffer A (20 mM HEPES, pH 7.5, 1.4 mM EGTA, 12.5 mM MgCl2, 10μg/mL benzamidine, 10μg/mL leupeptin, and 20μg/mL phenylmethysulfonylfluoride) was added to the supernatant and centrifuged again at 30,000 × g for 15 min at 4°C. The resultant pellet was kept, resuspended in buffer A then centrifuged once more at 30,000 × g for 15 min at 4°C. […] Protein concentrations were measured using the method of Bradford.
# (§3) The radioligand binding protocol used for this study was performed as previously described. […] Amounts of total and non-specific radiolabel bound to cell membranes were calculated from radioactive counts remaining on the glass fiber filters.
# [3] = target: wild type CLR-RAMP1 (transiently transfected HEK293T-RAMP1 cells) (Homo sapiens, UniProt O60894+Q16602); assay: cAMP generation, wild type CLR; assay type: cell-based
# [4] = test system: L24A, L34A and L24A,L34A CLR-RAMP1 heterodimers versus wild type; assay: Competition/saturation binding, leucine mutant CLRs compared with wild type; design: species or system human; conditions: for affinity at leucine mutants compared with wild type: L34A, L24A,L34A vs wild type CLR
# Description: A crude cell membrane preparation was prepared as previously described. Briefly, HEK293T-RAMP1 membranes were prepared by scraping and transferring cells to a 50 mL conical tube using cold HBSS followed with two washings by centrifugation at 1000 × g using cold HBSS. The intact cell pellet was resuspended in 10 mL of 0.25 M sucrose containing a protease inhibitor cocktail consisting of 10μg/mL benzamidine, 10μg/mL leupeptin, and 20μg/mL phenylmethysulfonylfluoride. The cells were disrupted by freezing followed by Dounce homogenization of the thawed suspension using 20 strokes from a loose fitting (B) pestle. This mixture was then centrifuged at 1260 × g for 5 min at 4°C. Buffer A (20 mM HEPES, pH 7.5, 1.4 mM EGTA, 12.5 mM MgCl2, 10μg/mL benzamidine, 10μg/mL leupeptin, and 20μg/mL phenylmethysulfonylfluoride) was added to the supernatant and centrifuged again at 30,000 × g for 15 min at 4°C. The resultant pellet was kept, resuspended in buffer A then centrifuged once more at 30,000 × g for 15 min at 4°C. The final crude membrane pellet was resuspended in buffer A containing 10% glycerol and stored in aliquots at -70°C until used for radioligand binding. Protein concentrations were measured using the method of Bradford.
# The radioligand binding protocol used for this study was performed as previously described. […] Binding was stopped by filtering the membranes though Whatman GF/C glass fiber filters, followed by 5 – 5 mL washes with cold buffer B (20 mM HEPES, pH 7.5, 1.4 mM EGTA, 12.5 mM MgCl2) to remove any unbound drug. Amounts of total and non-specific radiolabel bound to cell membranes were calculated from radioactive counts remaining on the glass fiber filters.
# [5] = test system: endogenous CGRP receptors on acutely isolated pancreatic acinar cells; design: method as in PMID 7689110; conditions: cited from earlier work
# [6] = test system: wild type and L24A, L34A, L24A,L34A CLR-RAMP1 (HEK293T-RAMP1 cells); assay: cAMP generation, wild type and leucine mutant CLRs compared; conditions: L24A, L34A, L24A,L34A vs wild type CLR
# [7] = target: T1, wild type CLR-RAMP1 heterodimer (HEK293T-RAMP1 membranes); assay: Saturation binding of [^125I-Tyr]CGRP(8–37), wild type CLR; conditions: per mg wild type membrane protein; mean ± S.E., n = 3 in duplicate
# Description: as §2, §3
# [8] = test system: HEK293T-RAMP1 membranes without CLR; assay: Radioligand binding, non-transfected or empty-vector HEK293T-RAMP1 membranes; conditions: increasing radioligand concentrations, data not shown
# Description: as §2, §3
# [9] = target: CGRP receptors endogenously expressed in rat brain and peripheral tissues; design: method as in Van Rossum et al., 1994; conditions: previously published equilibrium dissociation constant; ref Van Rossum et al., 1994; read-out: Reported Wild Type, Kd of radioligand; cited from earlier work
# [10] = target: endogenous CGRP receptors expressed in the guinea pig atria; design: method as in Rovero et al., 1992; conditions: estimated from functional characterization, n = 3, ref Rovero et al., 1992, read-out: Reported Wild Type, equilibrium dissociation constant; cited from earlier work
# [11] = target: CLR-RAMP1 heterodimer with the L24A CLR mutant (UniProt Q16602); assay: radioligand binding; competition: increasing unlabeled peptide against specific [125I-Tyr]CGRP(8–37) binding on crude membranes of transiently transfected HEK293T-RAMP1 cells, same buffer as the saturation binding; Ki from IC50 by the method of Cheng and Prusoff
# [12] = target: CLR-RAMP1 heterodimer with the L24A,L34A CLR double mutant (UniProt Q16602); assay: as above
# [13] = target: CLR-RAMP1 heterodimer with the L34A CLR mutant (UniProt Q16602); assay: as above
# [14] = target: CLR-RAMP1 heterodimer, wild type calcitonin-like receptor (CLR) with receptor-activity-modifying protein-1 (RAMP1) (UniProt Q16602); assay: as above
# [15] = target: T2, CLR-RAMP1 heterodimer, wild type calcitonin-like receptor (CLR) with receptor-activity-modifying protein-1 … (human | , UniProt Q16602 23-461; O60894 27-148); assay: cell-based or functional assay
# [16] = target: T3, CLR-RAMP1 heterodimer with the L24A CLR mutant (human | , UniProt Q16602 23-461; O60894 27-148, L24A); assay: cell-based or functional assay
# [17] = target: T4, CLR-RAMP1 heterodimer with the L34A CLR mutant (human | , UniProt Q16602 23-461; O60894 27-148, L34A); assay: cell-based or functional assay
# [18] = target: T5, CLR-RAMP1 heterodimer with the L24A,L34A CLR double mutant (human | , UniProt Q16602 23-461; O60894 27-148, L24A | L34A); assay: cell-based or functional assay
# [19] = target: T2, CLR-RAMP1 heterodimer, wild type …; assay: radioligand binding; competition: increasing unlabeled peptide against specific [125I-Tyr]CGRP(8–37) binding on crude membranes of transiently transfected HEK293T-RAMP1 cells, same buffer as the saturation binding; Ki from IC50 by the method of Cheng and Prusoff
# [20] = target: T3, CLR-RAMP1 heterodimer with the L24A CLR …; assay: as above
# [21] = target: T4, CLR-RAMP1 heterodimer with the L34A CLR …; assay: as above
# [22] = target: T5, CLR-RAMP1 heterodimer with the …; assay: as above
molecule,measurement,setting,value
NCCCC[C@H](NC(=O)[C@@H](Cc1cc(Br)c(O)c(Br)c1)NC(=O)N1CCC(N2Cc3ccccc3NC2=O)CC1)C(=O)N1CCN(c2ccncc2)CC1 [BIBN4096BS],displacement in competition binding,CGRP receptor,"selectively be displaced in competition binding assays by CGRP and the receptor antagonist, CGRP(8–37)"
same,affinity for endogenous CGRP receptor,[1],high affinity
CC(C)C[C@H](NC(=O)CNC(=O)[C@H](C)NC(=O)[C@H](CC(C)C)NC(=O)[C@H](CCCNC(=N)N)NC(=O)[C@H](Cc1c[nH]cn1)NC(=O)[C@@H](NC(=O)[C@@H](NC(=O)[C@@H]1CSSC[C@H](NC(=O)[C@H](C)N)C(=O)N[C@@H](CC(=O)O)C(=O)N[C@@H]([C@@H](C)O)C(=O)N[C@@H](C)C(=O)N[C@@H]([C@@H](C)O)C(=O)N1)C(C)C)[C@@H](C)O)C(=O)N[C@@H](CC(C)C)C(=O)N[C@@H](CO)C(=O)N[C@@H](CCCNC(=N)N)C(=O)N[C@@H](CO)C(=O)NCC(=O)NCC(=O)N[C@H](C(=O)N[C@H](C(=O)N[C@@H](CCCCN)C(=O)N[C@@H](CC(N)=O)C(=O)N[C@@H](CC(N)=O)C(=O)N[C@@H](Cc1ccccc1)C(=O)N[C@H](C(=O)N1CCC[C@H]1C(=O)N[C@H](C(=O)N[C@@H](CC(N)=O)C(=O)N[C@H](C(=O)NCC(=O)N[C@@H](CO)C(=O)N[C@@H](CCCCN)C(=O)N[C@@H](C)C(N)=O)C(C)C)[C@@H](C)O)C(C)C)C(C)C)C(C)C [CGRP(1–36)] (H-ACDTATCVTHRLAGLLSRSGGVVKNNFVPTNVGSKA-NH2; disulfide 2-7 (inferred); N-terminus assumed),affinity for wild type CLR compared with CGRP,[2],significant affinity loss
same,maximal cAMP response,"[3]; CGRP(1–36) compared with CGRP, CGRP(1–19) compared with CGRP(1–36) and CGRP",maximal response was similar
same,"fold loss of EC50 potency vs CGRP, wild type",[3]; cAMP EC50 of the fragment compared with CGRP,"over 2,600 fold"
same,"cAMP potency compared with CGRP, wild type",[3]; compared to CGRP,significantly less
same,affinity at leucine mutants compared with wild type,[4],no differences
same,amylase release,[5],increase amylase release
same,cAMP potency at leucine mutants compared with wild type,[6],no different; also recorded: no significant potency differences
CC(C)C[C@H](NC(=O)CNC(=O)[C@H](C)NC(=O)[C@H](CC(C)C)NC(=O)[C@H](CCCNC(=N)N)NC(=O)[C@H](Cc1c[nH]cn1)NC(=O)[C@@H](NC(=O)[C@@H](NC(=O)[C@@H](N)Cc1ccc(O)c(I)c1)C(C)C)[C@@H](C)O)C(=O)N[C@@H](CC(C)C)C(=O)N[C@@H](CO)C(=O)N[C@@H](CCCNC(=N)N)C(=O)N[C@@H](CO)C(=O)NCC(=O)NCC(=O)N[C@H](C(=O)N[C@H](C(=O)N[C@@H](CCCCN)C(=O)N[C@@H](CC(N)=O)C(=O)N[C@@H](CC(N)=O)C(=O)N[C@@H](Cc1ccccc1)C(=O)N[C@H](C(=O)N1CCC[C@H]1C(=O)N[C@H](C(=O)N[C@@H](CC(N)=O)C(=O)N[C@H](C(=O)NCC(=O)N[C@@H](CO)C(=O)N[C@@H](CCCCN)C(=O)N[C@@H](C)C(=O)N[C@@H](Cc1ccccc1)C(N)=O)C(C)C)[C@@H](C)O)C(C)C)C(C)C)C(C)C [[^125I-Tyr]CGRP(8–37)],Bmax (maximal specific binding),[7],285 ± 206 fmols/mg
same,"fold decrease in affinity, mutant receptors vs wild type","[4]; L34A and L24A,L34A compared to wild type CLR",~10 fold
same,specific binding without CLR,[8],no specific binding
same,Kd,[9],0.0002 µM
Ac-SGGVVKNNFVPTNVGSKAF-NH2 [AcCGRP(19–37)],affinity at leucine mutants compared with wild type,[4],significantly different (P < .05) from the wild type receptor
same,Kd,[10],0.933 µM
AcCGRP(19–37) (peptide),Ki,[11],3 µM
same,Ki,[12],2 µM
same,Ki,[13],4.6 µM
same,Ki,[14],0.227 µM
ACDTATCVTHRLAGLLSRSGGVVKNNFVPTNVGSKA-NH2 (not fully specified (bridges); cysteine pairing not given here) [CGRP(1–36)],EC50 of cAMP generation in transiently transfected HEK293T-RAMP1 cells,[15],4.3 µM
same,EC50 of cAMP generation in transiently transfected HEK293T-RAMP1 cells,[16],3.4 µM
same,EC50 of cAMP generation in transiently transfected HEK293T-RAMP1 cells,[17],5.6 µM
same,EC50 of cAMP generation in transiently transfected HEK293T-RAMP1 cells,[18],4.2 µM
same,Ki,[19],> 10 µM
same,Ki,[20],> 10 µM
same,Ki,[21],> 10 µM
same,Ki,[22],> 10 µM
